These results are taken from patent US8343990B2, “Substituted cyclopropyl compounds, compositions containing such compounds and methods of treatment” (Merck Sharp & Dohme Corp., priority 2008, dated 2013).

This experiment deals with T1, GPR119 receptor (UniProt Q8TDV5, S309L, species not given).
T1 sequence (Q8TDV5 1-335 S309L): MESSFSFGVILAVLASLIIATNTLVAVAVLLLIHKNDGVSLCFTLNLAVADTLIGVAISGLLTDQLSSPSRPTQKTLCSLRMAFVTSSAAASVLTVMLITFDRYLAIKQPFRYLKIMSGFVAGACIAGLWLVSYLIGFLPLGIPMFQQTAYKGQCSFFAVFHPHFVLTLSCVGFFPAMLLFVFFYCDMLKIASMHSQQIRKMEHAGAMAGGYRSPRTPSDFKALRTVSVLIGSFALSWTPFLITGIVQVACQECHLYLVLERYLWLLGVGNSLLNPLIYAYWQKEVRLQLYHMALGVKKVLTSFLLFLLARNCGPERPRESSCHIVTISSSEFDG
The experiment is described as follows: GPR119 signaling, cyclic AMP (cAMP) homogenous time resolved fluorescence (HTRF) assay. The format is cell-based. The note with it: CHO cells with Gα15 and murine GPR119, or HEK293 Flp-In cells with human GPR119 S309L; table does not say which; read-out: Activity: inflection points, denoted as EC50 values (agonist activation of GPR119, cAMP). From the text:
Measurement of GPR119 Signaling Using a Cyclic AMP (cAMP) Homogenous Time Resolved Fluorescence (HTRF) Assay
Chinese hamster ovary (CHO) cell lines stably transfected with the permissive guanine nucleotide binding protein alpha 15 (Gα15) and […] GPR119 were maintained in DMEM media containing FBS, penicillin-streptomycin, puromycin, and G418 (geneticin). Alternatively, human embryonic kidney (HEK)293 Flp-In cells (Invitrogen, Carlsbad, Calif.) were stably transfected with a human SNP variant (S309L) of GPR119 and maintained in DMEM media containing FBS, penicillin-streptomycin, and hygromycin. Agonist activation of the GPR119 receptor was measured in receptor transfected cells described above, treated with compounds of this invention, using a commercial homogenous time resolved fluorescence (HTRF) kit for measurement of cAMP (CisBio, Bedford, Mass.). The assay was performed in 96-well half-volume plates (murine) or 384-well plates (human) following the manufacturers instructions. Briefly, suspended cells were incubated with a dose titration of test compound at room temperature for 60 min, lysed, and incubated with HTRF reagents for an additional 60 min. The plate was read using an Envision multilabel reader (Perkin Elmer) adjusted to read time resolved fluorescence and the cAMP concentrations were extrapolated from a cAMP calibration curve. […] The concentration of test compound required to stimulate a half-maximal response (EC50), and efficacy as compared to an internal agonist control, was determined from a sigmoidal 4-parameter curve fit of the resulting plot of normalized activity versus compound concentration.

With `Clc1cnc(N2CCC(C3CC3CCOc3ccc(-n4ncnn4)cc3)CC2)nc1` (racemic) [Ex 31, rac cis-5-chloro-2-[4-(2-{2-[4-(2H-tetrazol-2-yl)phenoxy]ethyl}cyclopropyl)piperidin-1-yl]pyrimidine], the EC50 was in the range of 10 to 50 nM.
For the compound `Cc1nnn(-c2ccc(OCCC3CC3C3CCN(c4ncc(Cl)cn4)CC3)cc2)n1` (racemic) [Ex 31a, rac cis-5-chloro-2-[4-(2-{2-[4-(5-methyl-2H-tetrazol-2-yl)phenoxy]ethyl}cyclopropyl)piperidin-1-yl]pyrimidine], the EC50 was less than 10 nM.
On to `Cc1nnnn1-c1ccc(OCCC2CC2C2CCN(c3ncc(Cl)cn3)CC2)cc1` (racemic) [Ex 31b, rac cis-5-chloro-2-[4-(2-{2-[4-(5-methyl-1H-tetrazol-1-yl)phenoxy]ethyl}cyclopropyl)piperidin-1-yl]pyrimidine], for which the EC50 lay within 10 to 50 nM.
Turning to `Cc1nnc(-c2ccc(OCCC3CC3C3CCN(c4ncc(Cl)cn4)CC3)cc2F)o1` (racemic) [Ex 32, rac cis-5-chloro-2-[4-(2-{2-[3-fluoro-4-(5-methyl-1,3,4-oxadiazol-2-yl)phenoxy]ethyl}cyclopropyl)piperidin-1-yl]pyrimidine], the concentration for a half-maximal effect (EC50) is less than 10 nM.
In the case of `CC(=O)c1ccc(OCC[C@@H]2C[C@@H]2C2CCN(c3ncc(Cl)cn3)CC2)cc1` (racemic) [Ex 35, Rac-cis-1-[4-(2-{2 [1-(5-chloropyrimidin-2-yl)piperidin-4-yl]cyclopropyl}ethoxy)phenyl]ethanone], the EC50 fell in the range of 50 to 200 nM.
For `N#Cc1cc(OCC[C@@H]2C[C@@H]2C2CCN(c3ncc(Cl)cn3)CC2)ncn1` (racemic) [Ex 37, Rac-cis-6-(2-{2-[1-(5-chloropyrimidin-2-yl)piperidin-4-yl]cyclopropyl}ethoxy)pyrimidine-4-carbonitrile], the EC50 is less than 10 nM.
`N#Cc1nccc(OCC[C@@H]2C[C@@H]2C2CCN(c3ncc(Cl)cn3)CC2)n1` (racemic) [Ex 38, Rac-cis-4-(2-{2-[1-(5-chloropyrimidin-2-yl)piperidin-4-yl]cyclopropyl}ethoxy)pyrimidine-2-carbonitrile]: the EC50 lay in the range of 10 to 50 nM.
In the case of `Cc1cnc(N2CCC([C@H]3C[C@H]3CCOc3cc(C#N)nc(C)n3)CC2)nc1` (racemic) [Ex 40, Rac-cis-2-methyl-6-(2-{2-[1-(5-methylpyrimidin-2-yl)piperidin-4-yl]cyclopropyl}ethoxy)pyrimidine-4-carbonitrile], the EC50 was less than 10 nM.
As for `Cc1cnc(N2CCC([C@H]3C[C@H]3CCOc3cc(C)nc(C)n3)CC2)nc1` (racemic) [Ex 41, Rac-cis-2,4-dimethyl-6-(2-{2-[1-(5-methylpyrimidin-2-yl)piperidin-4-yl]cyclopropyl}ethoxy)pyrimidine], the EC50 was 10 to 50 nM.
Take `Cc1nc(C#N)cc(OCC[C@@H]2C[C@@H]2C2CCN(c3ncc(Cl)c(C)n3)CC2)n1` (racemic) [Ex 42, Rac-cis-6-(2-{2-[1-(5-chloro-4-methylpyrimidin-2-yl)piperidin-4-yl]cyclopropyl}ethoxy)-2-methylpyrimidine-4-carbonitrile]: the EC50 was less than 10 nM.
As to `Cc1nc(C#N)cc(OCC[C@@H]2C[C@@H]2C2CCN(c3ccc(Cl)cn3)CC2)n1` (racemic) [Ex 43, Rac-cis-6-(2-{2-[1-(5-chloropyridin-2-yl)piperidin-4-yl]cyclopropyl}ethoxy)-2-methylpyrimidine-4-carbonitrile], the EC50 is less than 10 nM.
Regarding `Cc1nc(C#N)cc(OCC[C@@H]2C[C@@H]2C2CCN(c3ncc(C)c(C)n3)CC2)n1` (racemic) [Ex 44, Rac-cis-6-(2-{2-[1-(4,5-dimethylpyrimidin-2-yl)piperidin-4-yl]cyclopropyl}ethoxy)-2-methylpyrimidine-4-carbonitrile], the EC50 was in the range of 10 to 50 nM.
Consider `Cc1nc(C#N)cc(OCC[C@@H]2C[C@@H]2C2CCN(c3cc(C)c(Cl)cn3)CC2)n1` (racemic) [Ex 45, Rac-cis-6-(2-{2-[1-(5-chloro-4-methylpyridin-2-yl)piperidin-4-yl]cyclopropyl}ethoxy)-2-methylpyrimidine-4-carbonitrile], for which the EC50 fell in the range of 10 to 50 nM.
Regarding `Cc1nc(C#N)cc(OCC[C@@H]2C[C@@H]2C2CCN(c3ncc(F)c(C)n3)CC2)n1` (racemic) [Ex 46, Rac-cis-6-(2-{2-[1-(5-fluoro-4-methylpyrimidin-2-yl)piperidin-4-yl]cyclopropyl}ethoxy)-2-methylpyrimidine-4-carbonitrile], the EC50 was less than 10 nM.
Take `Cc1nc(C#N)cc(OCC[C@@H]2C[C@@H]2C2CCN(c3ccc(C(F)(F)F)cn3)CC2)n1` (racemic) [Ex 47, Rac-cis-2-methyl-6-[2-(2-{1-[5-(trifluoromethyl)pyridin-2-yl]piperidin-4-yl}cyclopropyl)ethoxy]pyrimidine-4-carbonitrile]: the EC50 was less than 10 nM.
Regarding `Clc1cnc(N2CCC([C@@H]3C[C@@H]3CCOc3cccnc3)CC2)nc1` (racemic) [Ex 48, Rac-cis-5-chloro-2-(4-{2-[2-(pyridin-3-yloxy)ethyl]cyclopropyl}piperidin-1-yl)pyrimidine], the EC50 is more than 200 nM.
As to `Clc1cnc(N2CCC(C3CC3CCOc3ccncn3)CC2)nc1` (racemic) [Ex 49, Rac-cis-5-chloro-2-(4-{2-[2-(pyrimidin-4-yloxy)ethyl]cyclopropyl}piperidin-l-yl)pyrimidine], the EC50 was in the range of 50 to 200 nM.
For `N#Cc1cncc(OCC[C@@H]2C[C@@H]2C2CCN(c3ncc(Cl)cn3)CC2)c1` (racemic) [Ex 50, Rac-cis-5-(2-{2-[1-(5-chloropyrimidin-2-yl)piperidin-4-yl]cyclopropyl}ethoxy)nicotinonitrile], the concentration giving a half-maximal response (EC50) is 50 to 200 nM.
In the case of `Cc1nc(C#N)cc(OCC[C@@H]2C[C@@H]2C2CCN(c3ncc(Cl)cn3)CC2)n1` (racemic) [Ex 51, Rac-cis-6-(2-{2-[1-(5-chloropyrimidin-2-yl)piperidin-4-yl]cyclopropyl}ethoxy)-2-methylpyrimidine-4-carbonitrile], the EC50 was less than 10 nM.
The figure for `Cc1cc(OCC[C@@H]2C[C@@H]2C2CCN(c3ncc(Cl)cn3)CC2)nc(C#N)n1` (racemic) [Ex 52, Rac-cis-4-(2-{2-[1-(5-chloropyrimidin-2-yl)piperidin-4-yl]cyclopropyl}ethoxy)-6-methylpyrimidine-2-carbonitrile] is less than 10 nM; for `Cc1nc(C#N)cc(OCC[C@@H]2C[C@@H]2C2CCN(c3ncc(F)cn3)CC2)n1` (racemic) [Ex 53, Rac-cis-6-(2-{2-[1-(5-fluoropyrimidin-2-yl)piperidin-4-yl]cyclopropyl}ethoxy)-2-methylpyrimidine-4-carbonitrile] it is less than 10 nM.
For `N#Cc1ccc(OCC[C@@H]2C[C@@H]2C2CCN(c3ncc(Cl)cn3)CC2)cn1` (racemic) [Ex 54, Rac-cis-5-(2-{2-[1-(5-chloropyrimidin-2-yl)piperidin-4-yl]cyclopropyl}ethoxy)pyridine-2-carbonitrile], the EC50 lay in the range of 50 to 200 nM.
As for `Clc1cnc(N2CCC([C@@H]3C[C@@H]3CCOc3ccncc3)CC2)nc1` (racemic) [Ex 55, Rac-cis-5-chloro-2-(4-{2-[2-(pyridin-4-yloxy)ethyl]cyclopropyl}piperidin-1-yl)pyrimidine], the EC50 is 10 to 50 nM.
As to `Cc1cnc(N2CCC([C@@H]3C[C@@H]3CCOc3ccc(-c4nnc(C)o4)c(F)c3)CC2)nc1` (racemic) [Ex 84, rac-cis-2-[4-(2-{2-[3-fluoro-4-(5-methyl-1,3,4-oxadiazol-2-yl)phenoxy]ethyl}cyclopropyl)piperidin-1-yl]-5-methylpyrimidine], the EC50 is less than 10 nM.
Take `Cc1nnc(-c2ccc(OCC[C@H]3C[C@H]3C3CCN(c4ncccn4)CC3)cc2F)o1` (racemic) [Ex 85, Rac-cis-2-[4-(2-{2-[3-fluoro-4-(5-methyl-1,3,4-oxadiazol-2-yl)phenoxy]ethyl}cyclopropyl)piperidin-1-yl]pyrimidine]: the EC50 was less than 10 nM.
In the case of `Cc1nnc(-c2ccc(OCC[C@H]3C[C@H]3C3CCN(c4ncc(F)cn4)CC3)cc2F)o1` (racemic) [Ex 86, Rac-cis-5-fluoro-2-[4-(2-{2-[3-fluoro-4-(5-methyl-1,3,4-oxadiazol-2-yl)phenoxy]ethyl}cyclopropyl)piperidin-1-yl]pyrimidine], the EC50 is less than 10 nM.
Take `Cc1nnc(-c2ccc(OCC[C@H]3C[C@H]3C3CCN(c4ncc(Cl)c(C)n4)CC3)cc2F)o1` (racemic) [Ex 87, Rac-cis-5-chloro-2-[4-(2-{2-[3-fluoro-4-(5-methyl-1,3,4-oxadiazol-2-yl)phenoxy]ethyl}cyclopropyl)piperidin-1-yl]-4-methylpyrimidine]: the EC50 was less than 10 nM.

What is called EC50 is the concentration that produces a half-maximal response.
